What was measured:
wheat = assay: Test A pre-/postemergence herbicide test; type: in vivo, Triticum aestivum; conditions: Postemergence; for Plant response rating, Wheat: 125 g ai/ha, 0 to 100 scale; for Wheat plant response rating (0 to 100 scale, 0 is no effect, 100 is complete control): 500 g ai/ha
Outline: (§1)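 Visual 0–100 ratings (100 = complete control) made about 10 days after treatment, greenhouse-held plants compared with untreated controls. Treatments: postemergence sprays on one- to two-leaf plants (2–10 cm tall) and preemergence directed soil sprays after planting in loam–sand, chemicals formulated in non-phytotoxic solvent containing surfactant.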

galium = assay: Test A postemergence herbicide test; type: in vivo, Galium aparine; conditions: for Plant response rating, Galium: 125 g ai/ha, 0 to 100 scale; for Galium plant response rating (0 to 100 scale, 0 is no effect, 100 is complete control): 500 g ai/ha
Outline: (§2)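 Visual injury rating, 0 (no effect) to 100 (complete control), versus untreated controls ~10 days after treatment. Postemergence spray applied at one- to two-leaf stage, plants 2–10 cm tall, potted in loam soil/sand. Greenhouse-held.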

barnyardgrass [1] = assay: Test B flooded paddy test; type: in vivo, Echinochloa crus-galli; conditions: 500 g ai/ha, Flood; scale of 0 to 100 where 0 is no effect and 100 is complete control
Outline: (§3)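 Treatment was made at the 2-leaf stage by dosing the standing floodwater, kept 3 cm above soil level for the whole test. Greenhouse exposure lasted 13 to 15 days. Response is a visual percent rating relative to controls, where a dash indicates no test result.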

giant foxtail = assay: Test A pre-/postemergence herbicide test; type: in vivo, Setaria faberii; conditions: for Plant response rating, Foxtail, Giant: 0 to 100 scale
Outline: as §1

ducksalad = assay: Test B flooded paddy test; type: in vivo, Heteranthera limosa; conditions: 500 g ai/ha, Flood; scale of 0 to 100 where 0 is no effect and 100 is complete control
Outline: as §3

ryegrass, Italian = assay: Test A pre-/postemergence herbicide test; type: in vivo, Lolium multiflorum; conditions: for Plant response rating, Ryegrass, Italian: 0 to 100 scale
Outline: as §1

kochia = assay: Test A pre-/postemergence herbicide test; type: in vivo, Kochia scoparia; conditions: for Plant response rating, Kochia: 0 to 100 scale
Outline: as §1

barnyardgrass [2] = assay: Test A pre-/postemergence herbicide test; type: in vivo, Echinochloa crus-galli
Outline: as §1

blackgrass = assay: Test A postemergence herbicide test; type: in vivo, Alopecurus myosuroides; conditions: for Plant response rating, Blackgrass: 125 g ai/ha, 0 to 100 scale; for Blackgrass plant response rating (0 to 100 scale, 0 is no effect, 100 is complete control): 500 g ai/ha
Outline: as §2

ragweed = assay: Test A pre-/postemergence herbicide test; type: in vivo, Ambrosia elatior; conditions: for Plant response rating, Ragweed: 0 to 100 scale
Outline: as §1

corn = assay: Test A pre-/postemergence herbicide test; type: in vivo, Zea mays; conditions: Postemergence; for Plant response rating, Corn: 125 g ai/ha, 0 to 100 scale; for Corn plant response rating (0 to 100 scale, 0 is no effect, 100 is complete control): 500 g ai/ha
Outline: as §1

rice = assay: Test B flooded paddy test; type: in vivo, Oryza sativa; conditions: 500 g ai/ha, Flood; scale of 0 to 100 where 0 is no effect and 100 is complete control
Outline: as §3

pigweed = assay: Test A pre-/postemergence herbicide test; type: in vivo, Amaranthus retroflexus; conditions: for Plant response rating, Pigweed: 0 to 100 scale
Outline: as §1

sedge, umbrella = assay: Test B flooded paddy test; type: in vivo, Cyperus difformis; conditions: 500 g ai/ha, Flood; scale of 0 to 100 where 0 is no effect and 100 is complete control
Outline: as §3

[3] = 0 no effect, 100 complete control
[4] = 125 g ai/ha, visual rating, 0 no effect, 100 complete control, approximately 10 days, preemergence
[5] = Postemergence, 125 g ai/ha, 0 no effect, 100 complete control
[6] = 125 g ai/ha, visual rating, 0 to 100 scale, 0 no effect, 100 complete control, approximately 10 days, preemergence
[7] = Postemergence, 125 g ai/ha, 0 to 100 scale, 0 no effect, 100 complete control
[8] = preemergence, 500 g ai/ha, 0 to 100 scale (0 no effect, 100 complete control)
[9] = preemergence, 500 g ai/ha, 0 is no effect and 100 is complete control
[10] = 0 is no effect, 100 is complete control
[11] = Postemergence, 125 g ai/ha, 0 is no effect, 100 is complete control
[12] = Postemergence, 125 g ai/ha, 0 to 100 scale, 0 is no effect, 100 is complete control

Row | SMILES | Wheat plant response rating (0 to 100 scale, 0 is no effect, 100 is complete control) (wheat) | Galium plant response rating (0 to 100 scale, 0 is no effect, 100 is complete control) (galium) | Plant response rating, Barnyardgrass (barnyardgrass [1]) | Plant response rating, Foxtail, Giant (giant foxtail; [4]) | Foxtail, Giant plant response rating (0 to 100 scale, 0 is no effect, 100 is complete control) (giant foxtail; Postemergence, 500 g ai/ha) | Plant response rating, Foxtail, Giant (giant foxtail; preemergence, 500 g ai/ha) | Plant response rating, Ducksalad (ducksalad) | Plant response rating, Ryegrass, Italian (ryegrass, Italian; [4]) | Ryegrass, Italian plant response rating (0 to 100 scale, 0 is no effect, 100 is complete control) (ryegrass, Italian; Postemergence, 500 g ai/ha) | Plant response rating, Kochia (kochia; [4]) | Kochia plant response rating (0 to 100 scale, 0 is no effect, 100 is complete control) (kochia; Postemergence, 500 g ai/ha) | Plant response rating, Barnyardgrass (barnyardgrass [2]; [6]) | Barnyardgrass plant response rating (0 to 100 scale, 0 is no effect, 100 is complete control) (barnyardgrass [2]; Postemergence, 500 g ai/ha) | Plant response rating, Barnyardgrass (barnyardgrass [2]; [8]) | Blackgrass plant response rating (0 to 100 scale, 0 is no effect, 100 is complete control) (blackgrass) | Plant response rating, Ragweed (ragweed; [4]) | Ragweed plant response rating (0 to 100 scale, 0 is no effect, 100 is complete control) (ragweed; Postemergence, 500 g ai/ha) | Corn plant response rating (0 to 100 scale, 0 is no effect, 100 is complete control) (corn) | Plant response rating, Rice (rice) | Plant response rating, Pigweed (pigweed; [4]) | further results
1 | Cc1ccc(C2CNC(=O)C2C(=O)Nc2cccc(F)c2F)cc1 (racemic) [Compound 151] | 60 | 70 | 90 | 80 | 70 | 90 | 100 | 10 | 50 | 90 | 80 | 90 | 90 | 90 | 70 | 90 | 70 | 50 | 0 | 0 | Plant response rating, Wheat (wheat; [3]): 0; Plant response rating, Galium (galium; [3]): 60; Plant response rating, Foxtail, Giant (giant foxtail; [5]): 60; Plant response rating, Ryegrass, Italian (ryegrass, Italian; [5]): 30; Plant response rating, Ryegrass, Italian (ryegrass, Italian; preemergence, 500 g ai/ha): 60; Plant response rating, Kochia (kochia; [5]): 70; Plant response rating, Kochia (kochia; preemergence, 500 g ai/ha): 90; Plant response rating, Barnyardgrass (barnyardgrass [2]; [7]): 80; Plant response rating, Blackgrass (blackgrass; [3]): 40; Plant response rating, Ragweed (ragweed; [5]): 60; Plant response rating, Ragweed (ragweed; preemergence, 500 g ai/ha): 90; Plant response rating, Corn (corn; [3]): 0; Plant response rating, Pigweed (pigweed; [5]): 50; Pigweed plant response rating (0 to 100 scale, 0 is no effect, 100 is complete control) (pigweed; Postemergence, 500 g ai/ha): 60; Plant response rating, Pigweed (pigweed; preemergence, 500 g ai/ha): 0; Plant response rating, Sedge, Umbrella (sedge, umbrella): 0
2 | Cc1ccc(C2CNC(=O)C2C(=O)Nc2ccccc2Cl)cc1 (racemic) [Compound 152] | 0 | 70 | 60 | 70 | 60 | 90 | 100 | 0 | 50 | 30 | 60 | 90 | 80 | 90 | 50 | 50 | 50 | 0 | 15 | 0 | Plant response rating, Wheat (wheat; [3]): 0; Plant response rating, Galium (galium; [3]): 60; Plant response rating, Foxtail, Giant (giant foxtail; [5]): 50; Plant response rating, Ryegrass, Italian (ryegrass, Italian; [5]): 10; Plant response rating, Ryegrass, Italian (ryegrass, Italian; [9]): 30; Plant response rating, Kochia (kochia; [5]): 50; Plant response rating, Kochia (kochia; [9]): 60; Plant response rating, Barnyardgrass (barnyardgrass [2]; [7]): 70; Plant response rating, Blackgrass (blackgrass; [3]): 0; Plant response rating, Ragweed (ragweed; [5]): 40; Plant response rating, Ragweed (ragweed; [9]): 70; Plant response rating, Corn (corn; [3]): 0; Plant response rating, Pigweed (pigweed; [5]): 0; Pigweed plant response rating (0 to 100 scale, 0 is no effect, 100 is complete control) (pigweed; Postemergence, 500 g ai/ha): 20; Plant response rating, Pigweed (pigweed; [9]): 10; Plant response rating, Sedge, Umbrella (sedge, umbrella): 0
3 | Cc1ccc(C2CNC(=O)C2C(=O)Nc2cccc(F)c2)cc1 (racemic) [Compound 153] | 0 | 60 | 60 | 60 | 60 | 80 | 100 | 0 | 0 | 60 | 60 | 80 | 80 | 90 | 30 | 0 | 10 | 0 | 10 | 0 | Plant response rating, Wheat (wheat; [10]): 0; Plant response rating, Galium (galium; [10]): 0; Plant response rating, Foxtail, Giant (giant foxtail; [11]): 50; Plant response rating, Ryegrass, Italian (ryegrass, Italian; [11]): 0; Plant response rating, Ryegrass, Italian (ryegrass, Italian; [9]): 0; Plant response rating, Kochia (kochia; [11]): 60; Plant response rating, Kochia (kochia; [9]): 80; Plant response rating, Barnyardgrass (barnyardgrass [2]; [12]): 60; Plant response rating, Blackgrass (blackgrass; [10]): 40; Plant response rating, Ragweed (ragweed; [11]): 0; Plant response rating, Ragweed (ragweed; [9]): 80; Plant response rating, Corn (corn; [10]): 0; Plant response rating, Pigweed (pigweed; [11]): 40; Pigweed plant response rating (0 to 100 scale, 0 is no effect, 100 is complete control) (pigweed; Postemergence, 500 g ai/ha): 50; Plant response rating, Pigweed (pigweed; [9]): 0; Plant response rating, Sedge, Umbrella (sedge, umbrella): 0
4 | O=C1NCC(c2ccc3c(c2)OC(F)(F)O3)C1C(=O)Nc1ccccc1F (racemic) [Compound 161] | 40 | 60 | 65 | 90 | 90 | 90 | 100 | 0 | 50 | 20 | 60 | 90 | 90 | 90 | 50 | 20 | 30 | 60 | 10 | 20 | Plant response rating, Wheat (wheat; [10]): 20; Plant response rating, Galium (galium; [10]): 50; Plant response rating, Foxtail, Giant (giant foxtail; [11]): 90; Plant response rating, Ryegrass, Italian (ryegrass, Italian; [11]): 20; Plant response rating, Ryegrass, Italian (ryegrass, Italian; [9]): 50; Plant response rating, Kochia (kochia; [11]): 20; Plant response rating, Kochia (kochia; [9]): 60; Plant response rating, Barnyardgrass (barnyardgrass [2]; [12]): 90; Plant response rating, Blackgrass (blackgrass; [10]): 50; Plant response rating, Ragweed (ragweed; [11]): 0; Plant response rating, Ragweed (ragweed; [9]): 70; Plant response rating, Corn (corn; [10]): 10; Plant response rating, Pigweed (pigweed; [11]): 20; Pigweed plant response rating (0 to 100 scale, 0 is no effect, 100 is complete control) (pigweed; Postemergence, 500 g ai/ha): 60; Plant response rating, Pigweed (pigweed; [9]): 70; Plant response rating, Sedge, Umbrella (sedge, umbrella): 0

— patent publication US10294202B2, “Pyrrolidinones as herbicides” (FMC Corporation, priority 2013, dated 2019)
